Experimental data as given in patent US20050209157A1, “Short bioactive peptides and methods for their use” (priority 2001, published 2005).
No end group written: not given here.

How the values were obtained:
SW480 = assay: Anti-cancer assay, MTT, LD50; format: cell-based; details: SW480 colon adenocarcinoma line, 24 hours with peptide
From the text: (§1) Numbers are LD50 values (μg/mL).

BMKC = assay: Anti-cancer assay, MTT, LD50; format: cell-based; details: BMKC cloned melanoma line, 24 hours with peptide
From the text: as §1

HeLaS3 = assay: Anti-cancer assay, MTT, LD50; format: cell-based; details: 24 hours with peptide, cervical carcinoma
From the text: as §1

PC3 = assay: Anti-cancer assay, MTT, LD50; format: cell-based; details: 24 hours with peptide, prostate adenocarcinoma
From the text: as §1

MCF7 = assay: Anti-cancer assay, MTT, LD50; format: cell-based; details: MCF7 breast adenocarcinoma line, MTT, 24 hours with peptide
From the text: as §1

H1299 = assay: Anti-cancer assay, MTT, LD50; format: cell-based; details: 24 hours with peptide, lung large cell carcinoma
From the text: as §1

WI38 = details: MTT, 24 hours with peptide; for WI38 LD50: normal fibroblast line; for LD50 WI38: WI38 normal lung fibroblast line
Experimental: (§2) Viability of cells is determined by the dye response. In the following procedure, approximately 1.5×10^4 cells per well were added and viability was determined with the cells in a semi-confluent state. The assay was performed in a 96-well microtiter plate. After addition of peptide, the plate was set for 24 hours. MTT (5 mg/ml in phenol red-free RPMI-1640, 20 μl) was added to each well including positive control wells untreated with peptide. The plate was incubated at 37° C. for 4 hours. The liquid contents of each well was removed, and isopropanol with 0.1 M HCl (100 μl) was added to each well. The plate was sealed with parafilm to prevent evaporation of the isopropanol. The plate is allowed to rest for 5-10 minutes in order to solubilize the precipitate. Purified water (100 μl) was added to each well. Absorbance was determined with an ELISA Reader instrument. Color intensity at 540 nm is proportional to viability of cells.
(§3) WI38 (ATCC No. CCL75) is a normal fibroblast line of lung diploid cells, MCF7 (ATCC No. HTB22) is a breast adenocarcinoma tumor cell line, SW480 (ATCC No. CCL228) is a colon adenocarcinoma tumor cell line, BMKC is a cloned melanoma line derived from Bowes melanoma line HMCB (ATCC No. CRL9607), H1299 (ATCC No. CRL5803) is a lung large cell carcinoma tumor line, HeLaS3 (ATCC No. CCL2.2) is a cervical epitheleal carcinoma tumor cell line, and PC3 (ATCC No. CRL1435) is a prostate adenocarcinoma tumor cell line.

[1] = system: human red blood cells (RBC); assay: in vitro; format: cell-based; details: hemolytic assay, concentration at 50% hemolysis, 1 hour at 37° C.
[2] = system: Pseudomonas aeruginosa ATCC 9027; assay: Antimicrobial assay I, MIC by OD measurement; format: cell-based; details: 37° C. for 24 hours, absorbance 620 nm
[3] = system: Staphylococcus aureus ATCC 6538; assay: Antimicrobial assay I, MIC by OD measurement; format: cell-based; details: 37° C. for 24 hours, absorbance 620 nm
[4] = system: yeast (Saccharomyces cerevisiae); assay: Antimicrobial assay I, yeast assay in RPMI 1640; format: cell-based; details: RPMI 1640 media
Experimental: The data for the following antimicrobial assay of the peptides have been obtained by making OD measurements in in vitro cell culture experiments with and without added peptide. The protocol used is as follows.
Absorbance was read at 620 nm after shaking to resuspend cells.
The yeast assay was performed in RPMI 1640 media (pH 7.0 at 25° C.).
Staph6538 is Staphylococcus aureus ATCC accession number 6538; paerug9027 is Pseudomonas aeruginosa ATCC accession number 9027, yeast is Saccharomyces cerevisiae.

in vitro = details: human, WI38 normal lung fibroblast cells, LD50 WI38, WI38 normal lung fibroblast line, MTT, 24 hours with peptide
Experimental: as §2, §3

Substance	LD50 SW480 (SW480)	LD50 BMKC (BMKC)	HeLaS3 LD50 (HeLaS3)	PC3 LD50 (PC3)	LD50 MCF7 (MCF7)	H1299 LD50 (H1299)	WI38 LD50 (WI38)	LD50 WI38 (WI38)	LD50 [1]	paerug9027 (MIC) [2]	staph6538 (MIC) [3]	yeast (MIC or MFC) [4]	CC50 at 24 h (in vitro) [µg/mL]
FALALKALKK-NH2 [P169]	> (> indicates greater than 1000)	530 µg/mL	> (> indicates greater than 1000)	> (> indicates greater than 1000)	510 µg/mL	640 µg/mL	> (> indicates greater than 1000)	> (> indicates greater than 1000)	> (> indicates greater than 1000)	100 µg/mL	100 µg/mL	100 µg/mL	–
FAKLFAKAFKKAL-NH2 [P117, FAKLFAKAFKKAL-NH2]	> (> indicates greater than 1000)	> (> indicates greater than 1000)	> (> indicates greater than 1000)	> (> indicates greater than 1000)	> (> indicates greater than 1000)	> (> indicates greater than 1000)	> (> indicates greater than 1000)	> (> indicates greater than 1000)	> (> indicates greater than 1000)	200 µg/mL	100 µg/mL	200 µg/mL	–
KWKLF-NH2 [P131, KWKLF-NH2]	555 µg/mL	> (> indicates greater than 1000)	> (> indicates greater than 1000)	> (> indicates greater than 1000)	600 µg/mL	> (> indicates greater than 1000)	> (> indicates greater than 1000)	> (> indicates greater than 1000)	> (> indicates greater than 1000)	10 µg/mL	25 µg/mL	100 µg/mL	–
FALAKKALKKAKKAL-NH2 [P40, FALAKKALKKAKKAL-NH2]	> (> indicates greater than 1000)	> (> indicates greater than 1000)	> (> indicates greater than 1000)	435 µg/mL	760 µg/mL	> (> indicates greater than 1000)	> (> indicates greater than 1000)	> (> indicates greater than 1000)	> (> indicates greater than 1000)	25 µg/mL	100 µg/mL	100 µg/mL	–
FALALKALKKA-NH2 [P176]	–	–	–	–	–	–	–	–	> (> indicates greater than 1000)	> (> indicates greater than 200 μg/mL)	> (> indicates greater than 200 μg/mL)	> (> indicates greater than 200 μg/mL)	–
YAKLLAKLAKKAL-NH2 [P155, YAKLLAKLAKKAL-NH2]	> (> indicates greater than 1000)	> (> indicates greater than 1000)	> (> indicates greater than 1000)	–	> (> indicates greater than 1000)	> (> indicates greater than 1000)	> (> indicates greater than 1000)	> (> indicates greater than 1000)	> (> indicates greater than 1000)	> (> indicates greater than 200 μg/mL)	> (> indicates greater than 200 μg/mL)	> (> indicates greater than 200 μg/mL)	–
FAKAIAKIAFGKGIGKVGKKLL-NH2 [P134]	740 µg/mL	> (> indicates greater than 1000)	> (> indicates greater than 1000)	> (> indicates greater than 1000)	> (> indicates greater than 1000)	> (> indicates greater than 1000)	> (> indicates greater than 1000)	> (> indicates greater than 1000)	> (> indicates greater than 1000)	> (> indicates greater than 200 μg/mL)	100 µg/mL	200 µg/mL	–
FAKLLAKAFKKAL-NH2 [P114, FAKLLAKAFKKAL-NH2]	> (> indicates greater than 1000)	> (> indicates greater than 1000)	> (> indicates greater than 1000)	> (> indicates greater than 1000)	730 µg/mL	> (> indicates greater than 1000)	> (> indicates greater than 1000)	> (> indicates greater than 1000)	> (> indicates greater than 1000)	15 µg/mL	50 µg/mL	100 µg/mL	–
KKVVFKVKFK-NH2 [P302, reference compound]	> (> indicates greater than 1000)	700 µg/mL	> (> indicates greater than 1000)	> (> indicates greater than 1000)	340 µg/mL	720 µg/mL	800 µg/mL	–	> (> indicates greater than 1000)	–	–	–	800
KFKKLAKKF-NH2 [P174]	> (> indicates greater than 1000)	> (> indicates greater than 1000)	> (> indicates greater than 1000)	> (> indicates greater than 1000)	> (> indicates greater than 1000)	> (> indicates greater than 1000)	> (> indicates greater than 1000)	> (> indicates greater than 1000)	> (> indicates greater than 1000)	–	–	–	–
MPKWKVFKKIEKVGRNIRNGIVKAGPAIAVLGEAKALG-OH [P5, reference compound]	–	–	–	–	–	–	–	–	> (> indicates greater than 1000)	50 µg/mL	100 µg/mL	> (> indicates greater than 200 μg/mL)	–
KLAKKLAKLAKLAKAL-OH [P160, reference compound]	370 µg/mL	220 µg/mL	550 µg/mL	450 µg/mL	320 µg/mL	470 µg/mL	700 µg/mL	–	> (> indicates greater than 1000)	–	–	–	700
KFKKLAKKW-NH2 [P175]	70 µg/mL	> (> indicates greater than 1000)	510 µg/mL	> (> indicates greater than 1000)	> (> indicates greater than 1000)	> (> indicates greater than 1000)	> (> indicates greater than 1000)	> (> indicates greater than 1000)	> (> indicates greater than 1000)	–	–	–	–
FKLAFKLAKKAFL-NH2 [P122]	570 µg/mL	700 µg/mL	780 µg/mL	800 µg/mL	360 µg/mL	830 µg/mL	720 µg/mL	–	> (> indicates greater than 1000)	–	–	–	720
